± gives the standard deviation of the averaged measurements.
Test system: SW982
Assay: relative viability vs DMSO control (72 h) (fraction); higher = more viable cells
Outline: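 Sarcoma cell lines were seeded in 384-well plates at densities set to reach 80–90% confluence. After 24 h, 2.5 µl of serially diluted compound was added (source plates 10 mM to 0.0002 mM), and plates were held 72 h at 37 °C, 5% CO2, with 0.1% DMSO vehicle and a 5 µM positive control. Relative viability came from ATPLite readings as percent growth, averaged over up to triplicate wells. Data were rescaled so full viability equals 1 and none equals 0.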

Compound | relative viability (0.00017 µM) | relative viability (0.00051 µM) | relative viability (0.00152 µM) | relative viability (0.00457 µM) | relative viability (0.01372 µM) | relative viability (0.04115 µM) | relative viability (0.1235 µM) | relative viability (0.3704 µM) | relative viability (1.111 µM) | relative viability (3.333 µM) | relative viability (10 µM) | relative viability (2 pM) | relative viability (5 pM) | relative viability (15 pM) | relative viability (50 pM) | relative viability (0.00014 µM) | relative viability (0.00041 µM) | relative viability (0.0012 µM) | relative viability (0.0037 µM) | relative viability (0.011 µM) | relative viability (200 fM) | relative viability (600 fM)
N#CC[C@H](C1CCCC1)n1cc(-c2ncnc3[nH]ccc23)cn1 [Ruxolitinib] | 0.96 ± 0.072 | 0.971 ± 0.05 | 0.964 ± 0.049 | 0.949 ± 0.054 | 0.939 ± 0.058 | 0.919 ± 0.061 | 0.915 ± 0.019 | 0.879 ± 0.02 | 0.842 ± 0.015 | 0.7741 ± 0.005 | 0.614 ± 0.022 | – | – | – | – | – | – | – | – | – | – | –
Cc1cc(C)c(/C=C2\C(=O)Nc3ccccc32)[nH]1 [Semaxanib] | 1.02 ± 0.03 | 1.02 ± 0.031 | 0.997 ± 0.022 | 0.9929 ± 0.0051 | 0.968 ± 0.011 | 0.96 ± 0.029 | 0.947 ± 0.03 | 0.933 ± 0.011 | 0.904 ± 0.02 | 0.879 ± 0.028 | 0.821 ± 0.041 | – | – | – | – | – | – | – | – | – | – | –
Cc1nc(-c2cn3c(n2)-c2ccc(-c4cnn(C(C)(C)C(N)=O)c4)cc2OCC3)n(C(C)C)n1 [Taselisib] | 1.03 ± 0.045 | 1.04 ± 0.023 | 1.02 ± 0.043 | 1.02 ± 0.02 | 1.02 ± 0.034 | 0.968 ± 0.02 | 0.898 ± 0.026 | 0.7957 ± 0.0075 | 0.633 ± 0.035 | 0.506 ± 0.016 | 0.339 ± 0.02 | – | – | – | – | – | – | – | – | – | – | –
CN1CCC(COc2cnc(-c3cccc(Cn4nc(-c5cccc(C#N)c5)ccc4=O)c3)nc2)CC1 [Tepotinib] | 1.02 ± 0.025 | 1.07 ± 0.027 | 1.051 ± 0.0014 | 1.07 ± 0.029 | 1.04 ± 0.019 | 1.06 ± 0.019 | 1.062 ± 0.0073 | 1.03 ± 0.035 | 1.04 ± 0.059 | 1.02 ± 0.027 | 0.777 ± 0.025 | – | – | – | – | – | – | – | – | – | – | –
COc1cc2nccc(Oc3ccc(NC(=O)Nc4cc(C)on4)c(Cl)c3)c2cc1OC [Tivozanib] | 1.06 ± 0.039 | 1.07 ± 0.048 | 1.06 ± 0.021 | 1.05 ± 0.037 | 1.08 ± 0.038 | 1.07 ± 0.033 | 1.08 ± 0.017 | 1.08 ± 0.046 | 1.07 ± 0.058 | 0.985 ± 0.029 | 0.571 ± 0.021 | – | – | – | – | – | – | – | – | – | – | –
C[C@@H]1CCN(C(=O)CC#N)C[C@@H]1N(C)c1ncnc2[nH]ccc12 [Tofacitinib] | 1.01 ± 0.036 | 1.05 ± 0.03 | 1.04 ± 0.03 | 1.03 ± 0.031 | 1.07 ± 0.037 | 1.03 ± 0.05 | 1.05 ± 0.05 | 1.06 ± 0.035 | 1.05 ± 0.042 | 1.04 ± 0.034 | 0.93 ± 0.081 | – | – | – | – | – | – | – | – | – | – | –
COc1cc2c(cc1O)CCN[C@]21CS[C@@H]2c3c(OC(C)=O)c(C)c4c(c3[C@H](COC1=O)N1[C@@H]2[C@H]2c3c(cc(C)c(OC)c3O)C[C@@H]([C@@H]1O)N2C)OCO4 [Trabectedin] | – | – | – | – | – | – | – | – | – | – | – | 0.929 ± 0.036 | 0.86 ± 0.035 | 0.765 ± 0.031 | 0.639 ± 0.034 | 0.385 ± 0.021 | 0.266 ± 0.0099 | 0.194 ± 0.0051 | 0.186 ± 0.0075 | 0.1406 ± 0.00098 | 0.987 ± 0.031 | 0.9423 ± 0.004
CC(=O)Nc1cccc(-n2c(=O)n(C3CC3)c(=O)c3c(Nc4ccc(I)cc4F)n(C)c(=O)c(C)c32)c1 [Trametinib] | 0.993 ± 0.045 | 0.988 ± 0.044 | 0.981 ± 0.028 | 0.938 ± 0.051 | 0.893 ± 0.095 | 0.866 ± 0.07 | 0.847 ± 0.084 | 0.848 ± 0.038 | 0.858 ± 0.049 | 0.838 ± 0.049 | 0.799 ± 0.027 | – | – | – | – | – | – | – | – | – | – | –
Cc1cc(Nc2ncnc3ccc(NC4=NC(C)(C)CO4)cc23)ccc1Oc1ccn2ncnc2c1 [Tucatinib] | 1.05 ± 0.062 | 1.11 ± 0.02 | 1.1 ± 0.022 | 1.09 ± 0.031 | 1.078 ± 0.0072 | 1.088 ± 0.0077 | 1.08 ± 0.035 | 1.059 ± 0.01 | 1.08 ± 0.046 | 1.1 ± 0.044 | 1.06 ± 0.026 | – | – | – | – | – | – | – | – | – | – | –
COc1cc2/c(=N/c3ccc(Br)cc3F)nc[nH]c2cc1OCC1CCN(C)CC1 [Vandetanib] | 0.997 ± 0.044 | 1 ± 0.035 | 0.977 ± 0.021 | 1.01 ± 0.033 | 1.01 ± 0.078 | 1.03 ± 0.041 | 0.983 ± 0.075 | 0.873 ± 0.077 | 0.699 ± 0.084 | 0.291 ± 0.032 | 0.0207 ± 0.0067 | – | – | – | – | – | – | – | – | – | – | –
CCCS(=O)(=O)Nc1ccc(F)c(C(=O)c2c[nH]c3ncc(-c4ccc(Cl)cc4)cc23)c1F [Vemurafenib] | 1.04 ± 0.063 | 1.08 ± 0.048 | 1.05 ± 0.027 | 1.03 ± 0.029 | 1.06 ± 0.053 | 1.02 ± 0.045 | 0.9867 ± 0.0019 | 0.988 ± 0.039 | 1.01 ± 0.029 | 0.794 ± 0.035 | 0.532 ± 0.02 | – | – | – | – | – | – | – | – | – | – | –
C[C@@H](c1ccc2nccn2c1)n1nnc2ncc(-c3cnn(C)c3)nc21 [Volitinib] | 1.05 ± 0.02 | 1.07 ± 0.012 | 1.05 ± 0.012 | 1.05 ± 0.056 | 1.07 ± 0.03 | 1.06 ± 0.022 | 1.03 ± 0.021 | 1.07 ± 0.016 | 1.04 ± 0.034 | 1.07 ± 0.011 | 1.06 ± 0.025 | – | – | – | – | – | – | – | – | – | – | –
C=CC(=O)N1CCC([C@@H]2CCNc3c(C(N)=O)c(-c4ccc(Oc5ccccc5)cc4)nn32)CC1 [Zanubrutinib] | 0.96 ± 0.026 | 0.968 ± 0.017 | 0.944 ± 0.03 | 0.958 ± 0.013 | 0.949 ± 0.027 | 0.96 ± 0.017 | 0.909 ± 0.019 | 0.893 ± 0.052 | 0.827 ± 0.025 | 0.771 ± 0.04 | 0.731 ± 0.045 | – | – | – | – | – | – | – | – | – | – | –

Reference: the supplement of paper PMC10883282
